For 17 compounds, IC50 results are on record in patent US20250177408A1, “INHIBITOR OF INTERACTION BETWEEN YAP/TAZ AND TEAD, PREPARATION THEREOF, PHARMACEUTICAL COMPOSITION THEREOF AND USE THEREOF” (ETERN BIOPHARMA (SHANGHAI) CO., LTD., priority 2022, published 2025).

Test [1] deals with YAP-TEAD protein interaction (His-TEAD1 (209-426) protein, Bio-YAP peptide (60-100)) (Homo sapiens, UniProt P28347). In words: YAP-TEAD protein interaction HTRF experiment. Type of test: binding. To be noted: His-TEAD1 (209-426) 10 nM, Bio-YAP peptide 50 nM, read-out: Activity of each compound in blocking YAP-TEAD protein interaction (grades of IC50 values). The procedure, abridged: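 His-TEAD1 (209-426) at 10 nM final was preincubated 20 min at RT with compounds (10-point 3-fold dilutions, duplicates, 1% DMSO), then Bio-YAP peptide, 10 min. Anti-His-Eu cryptate/streptavidin-XL665 added for 1 h at RT; HTRF read at ex 320 nm, Em665/Em620 ratio ×10000, IC50 from % inhibition.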
YAP-TEAD protein interaction (His-TEAD1 (209-426) protein, Bio-YAP peptide (60-100)), sequence (P28347 209-426): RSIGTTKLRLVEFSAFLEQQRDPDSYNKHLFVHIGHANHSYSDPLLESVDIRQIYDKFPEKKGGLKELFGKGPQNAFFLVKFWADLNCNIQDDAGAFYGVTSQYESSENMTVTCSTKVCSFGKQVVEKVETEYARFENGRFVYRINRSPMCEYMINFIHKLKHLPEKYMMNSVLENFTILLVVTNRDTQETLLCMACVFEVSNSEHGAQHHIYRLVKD
On the technique in general: In TR-FRET formats the signal depends on donor and acceptor labels being close together.

In test [2] the test system is MSTO-211H cells. In words: Cell proliferation inhibition experiment (CellTiter-Glo). Type of test: cell-based. To be noted: 96 hours, read-out: Inhibitory activity of each compound on the proliferation of MSTO-211H cells (grades of IC50 values). The procedure, abridged: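 MSTO-211H cells (1500/well, RPMI1640 + 10% FBS) were plated overnight at 37° C, 5% CO2, then exposed in duplicate to 9 three-fold compound dilutions (DMSO ≤0.5% final) for 96 hours. Viability was read as CellTiter-Glo luminescence after 10 min at room temperature. IC50 was derived from inhibition of the CTG signal.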
In general terms: ATP-based viability assays read luminescence as a measure of living cells.

Like-named read-outs stand apart in the source and are kept apart here.

Take `[2H]C1([2H])CC[C@]([2H])([C@@]2(c3ccccc3)Cc3c(cc(F)c(Cl)c3-c3c(C(N)=O)cc4c(c3F)Oc3c(cnn(CC(F)(F)F)c3=O)O4)O2)N1` (atropisomer, axis not shown) [Compound 153, (S)-8-((S)-5-Chloro-6-fluoro-2-phenyl-2-((S)-pyrrolidin-2-yl-2,5,5-d3)-2,3-dihydrobenzofuran-4-yl)-9-fluoro-1-oxo-2-(2,2,2-trifluoroethyl)-1,2-dihydroxybenzo[5,6][1,4] dioxo [2,3-d]pyridazine-7-carboxamide]: the IC50 in test [1] is less than 50 nM; in test [2] (Homo sapiens), less than 200 nM.
In the same order, the values of `[2H]C1([2H])CC[C@]([2H])([C@@]2(c3ccccc3)Cc3c(cc(F)c(Cl)c3-c3c(C(N)=O)cc4c(c3F)Oc3c(cnn(C5CC(F)(F)C5)c3=O)O4)O2)N1` (atropisomer, axis not shown) [Compound 154, (S)-8-((S)-5-Chloro-6-fluoro-2-phenyl-2-((S)-pyrrolidin-2-yl-2,5,5-d3)-2,3-dihydrobenzofuran-4-yl)-2-(3,3-difluorocyclobutyl)-9-fluoro-1-oxo-1,2-dihydrobenzo[5,6][1,4]dioxo [2,3-d]pyridazine-7-carboxamide] are less than 50 nM and less than 200 nM.
The like results for `[2H]C1([2H])CC[C@]([2H])([C@@]2(c3ccccc3)Cc3c(cc(F)c(Cl)c3-c3c(C(N)=O)cc4c(c3F)Oc3c(cnn(CCC(F)(F)F)c3=O)O4)O2)N1` (atropisomer, axis not shown) [Compound 155, (S)-8-((S)-5-Chloro-6-fluoro-2-phenyl-2-((S)-pyrrolidin-2-yl-2,5,5-d3)-2,3-dihydrobenzofuran-4-yl)-9-fluoro-1-oxo-2-(3,3,3-trifluoropropyl)-1,2-dihydroxybenzo[5,6][1,4] dioxo[2,3-d]pyridazine-7-carboxamide] were, in that order, less than 50 nM and less than 200 nM.
Turning to `[2H]C1([2H])CC[C@]([2H])([C@@]2(c3ccccc3)Cc3c(cc(F)c(Cl)c3-c3c(C(=O)NC)cc4c(c3F)Oc3c(cnn(CC(F)F)c3=O)O4)O2)N1` (atropisomer, axis not shown) [Compound 156, (S)-8-((S)-5-Chloro-6-fluoro-2-phenyl-2-((S)-pyrrolidin-2-yl-2,5,5-d3)-2,3-dihydrobenzofuran-4-yl)-2-(2,2-difluoroethyl)-9-fluoro-N-methyl-1-oxo-1,2-dihydrobenzo[5,6][1,4]dioxo [2,3-d]pyridazine-7-carboxamide], the IC50 in test [1] is less than 50 nM; in test [2] (Homo sapiens), less than 200 nM.
The like results for `[2H]C1([2H])CC[C@]([2H])([C@@]2(c3ccccc3)Cc3c(cc(F)c(Cl)c3-c3c(C(=O)NC)cc4c(c3F)Oc3c(cnn(CC(F)(F)F)c3=O)O4)O2)N1` (atropisomer, axis not shown) [Compound 157, (S)-8-((S)-5-Chloro-6-fluoro-2-phenyl-2-((S)-pyrrolidin-2-yl-2,5,5-d3)-2,3-dihydrobenzofuran-4-yl)-9-fluoro-N-methyl-1-oxo-2-(2,2,2-trifluoroethyl)-1,2-dihydroxybenzo[5,6][1,4] dioxo[2,3-d]pyridazine-7-carboxamide] were, in that order, less than 50 nM and less than 200 nM.
The like results for `[2H]C1([2H])CC[C@]([2H])([C@@]2(c3ccccc3)Cc3c(cc(F)c(Cl)c3-c3c(C(=O)NC)cc4c(c3F)Oc3c(cnn(C5CC(F)(F)C5)c3=O)O4)O2)N1` (atropisomer, axis not shown) [Compound 158, (S)-8-((S)-5-Chloro-6-fluoro-2-phenyl-2-((S)-pyrrolidin-2-yl-2,5,5-d3)-2,3-dihydrobenzofuran-4-yl)-2-(3,3-difluorocyclobutyl)-9-fluoro-N-methyl-1-oxo-1,2-dihydrobenzo[5,6][1,4]dioxo [2,3-d]pyridazine-7-carboxamide] were, in that order, less than 50 nM and less than 200 nM.
The like results for `[2H]C1([2H])CC[C@]([2H])([C@@]2(c3ccccc3)Cc3c(cc(F)c(Cl)c3-c3c(C(=O)NC)cc4c(c3F)Oc3c(cnn(CCC(F)(F)F)c3=O)O4)O2)N1` (atropisomer, axis not shown) [Compound 159, (S)-8-((S)-5-Chloro-6-fluoro-2-phenyl-2-((S)-pyrrolidin-2-yl-2,5,5-d3)-2,3-dihydrobenzofuran-4-yl)-9-fluoro-N-methyl-1-oxo-2-(3,3,3-trifluoropropyl)-1,2-dihydroxybenzo [5,6][1,4]dioxo [2,3-d]pyridazine-7-carboxamide] were, in that order, less than 50 nM and less than 200 nM.
`O=C(NC1CC1)c1cc2c(c(F)c1-c1c(Cl)c(F)cc3c1C[C@](c1ccccc1)([C@@H]1CCCN1)O3)Oc1c(cnn(CC(F)F)c1=O)O2` (atropisomer, axis not shown) [Compound 160]: the IC50 was less than 50 nM in test [1] and less than 200 nM in test [2] (Homo sapiens).
In the same order, the values of `CNC[C@@]1(c2ccccc2)Cc2c(cc(F)c(Cl)c2-c2c(C(N)=O)cn3cc(C)nc3c2F)O1` (atropisomer, axis not shown) [Compound I-16, (S)-7-((S)-5-Chloro-6-fluoro-2-((methylamino)methyl)-2-phenyl-2,3-dihydrobenzofuran-4-yl)-8-fluoro-2-methylimidazo[1,2-a]pyridine-6-carboxamide] are less than 50 nM and less than 200 nM.
`CNC[C@@]1(c2ccccc2)Cc2c(cc(F)c(Cl)c2-c2c(C(N)=O)cc3c(c2F)OCCN3)O1` (atropisomer, axis not shown) [Compound I-17, (S)-7-((S)-5-Chloro-6-fluoro-2-((methylamino)methyl)-2-phenyl-2,3-dihydrobenzofuran-4-yl)-8-fluoro-3,4-dihydro-2H-benzo[b][1,4]oxazine-6-carboxamide]: the IC50 in test [1] is less than 50 nM; in test [2] (Homo sapiens), less than 200 nM.
The like results for `Cn1ncc2c(F)c(-c3c(Cl)c(F)cc4c3C[C@](c3ccccc3)([C@@H]3CCCN3)O4)c(C(N)=O)cc21` (atropisomer, axis not shown) [Compound I-28, (S)-5-((S)-5-Chloro-6-fluoro-2-phenyl-2-((S)-pyrrolidin-2-yl)-2,3-dihydrobenzofuran-4-yl)-4-fluoro-1-methyl-1H-indazole-6-carboxamide] were, in that order, less than 50 nM and less than 200 nM.
For the compound `CCC(=O)N1CCOc2c1cc(C(N)=O)c(-c1c(Cl)c(F)cc3c1C[C@](c1ccccc1)([C@@H]1CCCN1)O3)c2F` (atropisomer, axis not shown) [Compound I-29, (S)-7-((S)-5-Chloro-6-fluoro-2-phenyl-2-((S)-pyrrolidin-2-yl)-2,3-dihydrobenzofuran-4-yl)-8-fluoro-4-propionyl-3,4-dihydro-2H-benzo[b][1,4]oxazine-6-carboxamide], the IC50 in test [1] was less than 50 nM; in test [2] (Homo sapiens) it was 200 to 500 nM.
In the case of `NC(=O)c1cc2cn[nH]c2c(F)c1-c1c(Cl)c(F)cc2c1C[C@](c1ccccc1)([C@@H]1CCCN1)O2` (atropisomer, axis not shown) [Compound I-30, (S)-6-((S)-5-Chloro-6-fluoro-2-phenyl-2-((S)-pyrrolidin-2-yl)-2,3-dihydrobenzofuran-4-yl)-7-fluoro-1H-indazole-5-carboxamide], the results for the IC50 in test [1] and in test [2] (Homo sapiens) were less than 50 nM and 200 to 500 nM, respectively.
As for `NC(=O)c1cc2c(c(F)c1-c1c(Cl)c(F)cc3c1C[C@](c1ccccc1)([C@@H]1CCCN1)O3)Oc1nnccc1O2` [Compound 71, (S)-8-((S)-5-Chloro-6-fluoro-2-phenyl-2-((S)-pyrrolidin-2-yl)-2,3-dihydrobenzofuran-4-yl)-9-fluorobenzo[5,6][1,4]dioxo[2,3-c]pyridazine-7-carboxamide], the IC50 was less than 50 nM in test [1] and 200 to 500 nM in test [2].
Consider `NC(=O)c1cc2c(c(F)c1-c1c(Cl)c(F)cc3c1C[C@](c1ccccc1)([C@@H]1CCCN1)O3)Oc1ccnnc1O2` [Compound 103, (S)-7-((S)-5-Chloro-6-fluoro-2-phenyl-2-((S)-pyrrolidin-2-yl)-2,3-dihydrobenzofuran-4-yl)-6-fluorobenzo[5,6][1,4]dioxo[2,3-c]pyridazine-8-carboxamide], for which the IC50 is less than 50 nM in test [1] and 500 to 5000 nM in test [2].
Turning to `NC(=O)c1cc2c(c(F)c1-c1c(Cl)c(F)cc3c1C[C@](c1ccccc1)([C@@H]1CCCN1)O3)Oc1ncccc1C2O` (stereo partly drawn) [Compound 104, (S)-8-((S)-5-Chloro-6-fluoro-2-phenyl-2-((S)-pyrrolidin-2-yl)-2,3-dihydrobenzofuran-4-yl)-9-fluoro-5-hydroxy-5H-benzo[2,3-b]pyridine-7-carboxamide], the IC50 in test [1] is less than 50 nM; in test [2] (Homo sapiens), 200 to 500 nM.
In the same order, the values of `Cn1ncc2c(c1=O)Oc1cc(C(N)=O)c(-c3c(Cl)c(F)cc4c3CC(c3ccccc3)(C3CCCN3)O4)c(F)c1O2` [Compound 106, (S)-8-((S)-5-Chloro-6-fluoro-2-phenyl-2-((S)-pyrrolidin-2-yl)-2,3-dihydrobenzofuran-4-yl)-9-fluoro-3-methyl-4-oxo-3,4-dihydrobenzo[5,6][1,4]dioxo[2,3-d]pyridazine-7-carboxamide] are less than 50 nM and 200 to 500 nM.
